This passage reports GFP fluorescence (kMESF) and EC50 results from PubChem BioAssay AID504468 (NMMLSC, 2011).

The source made the active and inactive calls.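 The calls were made as follows: active = compounds with a fitted EC50 of 33 micromolar or lower for the MEP2 GFP signal; inactive = the rest.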

Test system in one assay: not listed separately
Kind of assay: MEP2-GFP expression modulation in yeast, dose response, flow cytometry, kMESF, KU SAR set 2 (AID 504468). Particulars: S. cerevisiae MEP2-GFP strain, flow cytometry fluorescence, 3 h; at 100 µM (top of the series). A general note: In flow cytometry, cells or beads pass a laser one at a time.
`CNc1nc(N)c([N+](=O)[O-])c(Nc2ccccc2Br)n1`: the GFP fluorescence (kMESF) is 4.59 kMESF (inactive).

For the compound `CNc1nc(N)c(C(=O)c2ccc(C)c(C)c2)c(Nc2cccc(Cl)c2)n1`, the GFP fluorescence (kMESF) is 4.45 kMESF (inactive).

As for `CNc1nc(N)c([N+](=O)[O-])c(Nc2cccc(OC)c2)n1`, the GFP fluorescence (kMESF) was 7.13 kMESF (inactive).

As for `CNc1nc(NC)c([N+](=O)[O-])c(Nc2cccc(Cl)c2)n1`, the GFP fluorescence (kMESF) is 4.45 kMESF (inactive).

As to `CNc1nc(N)c([N+](=O)[O-])c(Nc2cccc(Br)c2)n1`, the GFP fluorescence (kMESF) was 7.2 kMESF (inactive).

With `CNc1nc(N)c([N+](=O)[O-])c(Nc2ccccc2F)n1`, the GFP fluorescence (kMESF) is 4.66 kMESF (inactive).

Take `CCNc1nc(N)c([N+](=O)[O-])c(Nc2cccc(Cl)c2)n1`: the GFP fluorescence (kMESF) is 12 kMESF (inactive).

The assay is the same for the next values; noted with them: S. cerevisiae MEP2-GFP strain, flow cytometry fluorescence, 3 h; at 300 µM (top of the series).
Consider `CNc1nc(N)cc(Nc2ccccc2F)n1`, for which the GFP fluorescence (kMESF) is 2.73 kMESF (inactive).

Turning to `CNc1nc(N)cc(Oc2cccc(Cl)c2)n1`, the GFP fluorescence (kMESF) was 2.25 kMESF (inactive).

As for `COc1ccccc1-c1cc(Nc2cc(C)[nH]n2)nc(NCc2ccccc2)n1`, the GFP fluorescence (kMESF) was 2.59 kMESF (inactive).

On to `COc1cccc(-c2cc(Nc3cc(C)[nH]n3)nc(NCc3ccccc3)n2)c1`, for which the GFP fluorescence (kMESF) is 2.66 kMESF (inactive).

For the compound `COC(=O)c1cccc(-c2cc(Nc3cc(C)[nH]n3)nc(NCc3ccccc3)n2)c1`, the GFP fluorescence (kMESF) is 2.46 kMESF (inactive).

Regarding `CNc1nc(N)cc(Nc2cccc(Cl)c2)n1`, the GFP fluorescence (kMESF) was 2.73 kMESF (inactive).

Take `Cc1cc(Nc2cc(Nc3ccccc3)nc(NCc3ccccc3)n2)n[nH]1`: the GFP fluorescence (kMESF) was 2.46 kMESF (inactive).

`O=[N+]([O-])c1c(NC2CCCCC2)nc(NCc2ccccc2)nc1N1CCOCC1`: the GFP fluorescence (kMESF) is 2.32 kMESF (inactive).

Another assay concerns S. cerevisiae MEP2-GFP strain, flow cytometry fluorescence, 3 h. Described as above.
Conditions: not given
Regarding `CCOC(=O)c1c(N)nc(NC)nc1Nc1cccc(F)c1`, the EC50 is 81.8 µM (inactive).

With `CNc1nc(N)c([N+](=O)[O-])c(Nc2cccc(Oc3ccccc3)c2)n1`, the EC50 was 34.2 µM (inactive).

Regarding `Cc1cc(Nc2cc(-c3ccccc3)nc(NCc3ccccc3)n2)n[nH]1`, the EC50 is 107 µM (inactive).

Consider `CCNc1nc(NC2CCCCC2)c([N+](=O)[O-])c(N2CCOCC2)n1`, for which the EC50 is 189 µM (inactive).

As usually defined, the EC50 is the concentration giving half of the maximal effect.
